Assay results: US9944646B2, “Bicyclic azaheterocyclobenzylamines as PI3K inhibitors” (Incyte Corporation, priority 2012, dated 2018)
Where a name gives a salt, the structure may show the parent alone.

What follows are molecules tested against PI3Kδ (Homo sapiens (Human), UniProt O00329) (assay: PI3K Enzyme Assay (Example A2), [γ-33P]ATP filter plate).
Type: biochemical
Procedure: Example A2: PI3K Enzyme Assay
Lipid kinase substrate, phosphoinositol-4,5-bisphosphate (PIP2), are purchased from Echelon Biosciences (Salt Lake City, Utah). PI3K isoforms α, β, δ and γ are purchased from Millipore (Bedford, Mass.). ATP, MgCl2, DTT, EDTA, MOPS and CHAPS are purchased from Sigma-Aldrich (St. Louis, Mo.).
The kinase reaction are conducted in clear-bottom 96-well plate from Thermo Fisher Scientific in a final volume of 24 μL. Inhibitors are first diluted serially in DMSO and added to the plate wells before the addition of other reaction components. The final concentration of DMSO in the assay is 0.5%. The PI3K assays are carried out at room temperature in 20 mM MOPS, pH 6.7, 10 mM MgCl2, 5 mM DTT and CHAPS 0.03%. The reaction mixture is prepared containing 50 µM PIP2, kinase and varying concentration of inhibitors. Reactions are initiated by the addition of ATP containing 2.2 μCi [γ-^33P]ATP to a final concentration of 1000 μM. The final concentration of PI3K isoforms α, β, δ and γ in the assay were 1.3, 9.4, 2.9 and 10.8 nM, respectively. Reactions are incubated for 180 minutes and terminated by the addition of 100 μL of 1 M potassium phosphate pH 8.0, 30 mM EDTA quench buffer. A 100 μL aliquot of the reaction solution are then transferred to 96-well Millipore MultiScreen IP […] PVDF filter plate (The filter plate is prewetted with 200 μL 100% ethanol, distilled water, and 1 M potassium phosphate pH 8.0, respectively). The filter plate is aspirated on a Millipore Manifold under vacuum and washed with 18×200 μL wash buffer containing 1 M potassium phosphate pH 8.0 and 1 mM ATP. After drying by aspiration and blotting, the plate is air dried in an incubator at 37° C. overnight. Packard TopCount adapter (Millipore) is then attached to the plate followed with addition of 120 μL Microscint 20 scintillation cocktail (Perkin Elmer) in each well. After the plate sealing, the radioactivity of the product is determined by scintillation counting on Topcount (Perkin-Elmer). IC50 determination is performed by fitting the curve of percent control activity versus the log of the inhibitor concentration using the GraphPad Prism 3.0 software.

Sequence of PI3Kδ (O00329 whole entry): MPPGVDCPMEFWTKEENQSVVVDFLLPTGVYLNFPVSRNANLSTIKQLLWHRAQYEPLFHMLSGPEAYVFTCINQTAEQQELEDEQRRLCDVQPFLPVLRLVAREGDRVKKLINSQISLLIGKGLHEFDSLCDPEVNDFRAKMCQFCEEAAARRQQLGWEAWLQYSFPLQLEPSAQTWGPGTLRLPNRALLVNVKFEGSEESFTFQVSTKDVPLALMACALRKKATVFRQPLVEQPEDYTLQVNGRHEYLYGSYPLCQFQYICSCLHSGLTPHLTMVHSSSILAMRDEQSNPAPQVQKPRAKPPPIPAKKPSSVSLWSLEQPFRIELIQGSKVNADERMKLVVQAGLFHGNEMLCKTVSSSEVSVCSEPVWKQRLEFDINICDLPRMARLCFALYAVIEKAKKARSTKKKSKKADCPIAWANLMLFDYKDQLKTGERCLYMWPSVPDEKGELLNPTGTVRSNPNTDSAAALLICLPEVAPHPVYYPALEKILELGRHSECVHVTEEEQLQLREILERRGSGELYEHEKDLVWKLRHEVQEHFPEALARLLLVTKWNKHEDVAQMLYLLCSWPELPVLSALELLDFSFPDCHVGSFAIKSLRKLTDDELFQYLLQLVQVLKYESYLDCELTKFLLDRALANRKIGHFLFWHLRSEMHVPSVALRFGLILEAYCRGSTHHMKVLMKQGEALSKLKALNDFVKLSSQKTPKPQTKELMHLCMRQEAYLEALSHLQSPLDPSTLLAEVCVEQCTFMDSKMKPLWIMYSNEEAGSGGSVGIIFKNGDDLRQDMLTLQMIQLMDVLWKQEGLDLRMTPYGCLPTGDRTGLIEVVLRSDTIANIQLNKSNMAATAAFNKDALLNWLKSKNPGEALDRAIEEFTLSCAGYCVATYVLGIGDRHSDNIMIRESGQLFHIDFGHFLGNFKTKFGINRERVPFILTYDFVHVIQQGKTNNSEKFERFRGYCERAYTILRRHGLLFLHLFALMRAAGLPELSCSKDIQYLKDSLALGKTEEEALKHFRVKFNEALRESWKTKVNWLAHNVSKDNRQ
Sequence of PI3Kδ (P27986 whole entry partner): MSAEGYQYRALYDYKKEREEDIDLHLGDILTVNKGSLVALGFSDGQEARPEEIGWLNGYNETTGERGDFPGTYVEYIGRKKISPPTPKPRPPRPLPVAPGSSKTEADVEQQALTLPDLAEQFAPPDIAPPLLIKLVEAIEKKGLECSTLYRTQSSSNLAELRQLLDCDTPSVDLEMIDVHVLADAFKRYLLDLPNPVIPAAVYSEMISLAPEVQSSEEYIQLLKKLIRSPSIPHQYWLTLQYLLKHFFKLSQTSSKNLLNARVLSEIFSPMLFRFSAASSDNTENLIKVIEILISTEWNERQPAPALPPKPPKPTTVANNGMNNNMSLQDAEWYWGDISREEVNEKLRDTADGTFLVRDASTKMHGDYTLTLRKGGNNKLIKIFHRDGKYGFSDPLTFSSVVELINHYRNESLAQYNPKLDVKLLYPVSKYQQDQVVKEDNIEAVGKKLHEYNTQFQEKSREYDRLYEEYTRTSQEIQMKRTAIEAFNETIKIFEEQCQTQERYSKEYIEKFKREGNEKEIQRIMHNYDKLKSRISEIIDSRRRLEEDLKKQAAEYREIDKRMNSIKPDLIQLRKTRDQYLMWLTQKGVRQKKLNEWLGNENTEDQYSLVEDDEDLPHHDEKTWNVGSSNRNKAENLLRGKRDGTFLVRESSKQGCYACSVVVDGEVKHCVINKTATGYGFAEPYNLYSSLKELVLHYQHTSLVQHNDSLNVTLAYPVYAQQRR

| SMILES | IC50 |
| --- | --- |
| CCOC(=O)N1CC(N2Cc3c(C#N)c(Cl)cc(C(C)n4nc(C)c5c(N)ncnc54)c3OC(C)C2)C1 (single isomer, unassigned) [Example 99, ethyl 3-[9-[1-(4-amino-3-methyl-1H-pyrazolo[3,4-d]pyrimidin-1-yl)ethyl]-7-chloro-6-cyano-2-methyl-2,3-dihydro-1,4-benzoxazepin-4(5H)-yl]azetidine-1-carboxylate] | ≤ 100 nM |
| CCOC(=O)N1CC(N2Cc3c(C#N)c(Cl)cc(C(C)n4nc(C)c5c(N)ncnc54)c3OC(C)C2)C1 (single isomer, unassigned) [Example 100, ethyl 3-[9-[1-(4-amino-3-methyl-1H-pyrazolo[3,4-d]pyrimidin-1-yl)ethyl]-7-chloro-6-cyano-2-methyl-2,3-dihydro-1,4-benzoxazepin-4(5H)-yl]azetidine-1-carboxylate] | ≤ 100 nM |
| Cc1nn(C(C)c2cc(Cl)c(C#N)c3c2OC(C)CN(C2CN(C(=O)NC(C)C)C2)C3)c2ncnc(N)c12 (single isomer, unassigned) [Example 101, 3-[9-[1-(4-amino-3-methyl-1H-pyrazolo[3,4-d]pyrimidin-1-yl)ethyl]-7-chloro-6-cyano-2-methyl-2,3-dihydro-1,4-benzoxazepin-4(5H)-yl]-N-isopropylazetidine-1-carboxamide] | ≤ 100 nM |
| Cc1nn(C(C)c2cc(Cl)c(C#N)c3c2OC(C)CN(C2CN(C(=O)NC(C)C)C2)C3)c2ncnc(N)c12 (single isomer, unassigned) [Example 102, 3-[9-[1-(4-amino-3-methyl-1H-pyrazolo[3,4-d]pyrimidin-1-yl)ethyl]-7-chloro-6-cyano-2-methyl-2,3-dihydro-1,4-benzoxazepin-4(5H)-yl]-N-isopropylazetidine-1-carboxamide] | ≤ 100 nM |
| Cc1nn(C(C)c2cc(Cl)c(C#N)c3c2OC(C)CN(C2CN(CCO)C2)C3)c2ncnc(N)c12 (single isomer, unassigned) [Example 103, 9-[1-(4-amino-3-methyl-1H-pyrazolo[3,4-d]pyrimidin-1-yl)ethyl]-7-chloro-4-[1-(2-hydroxyethyl)azetidin-3-yl]-2-methyl-2,3,4,5-tetrahydro-1,4-benzoxazepine-6-carbonitrile] | ≤ 100 nM |
| Cc1nn(C(C)c2cc(Cl)c(C#N)c3c2OC(C)CN(C2CN(S(=O)(=O)N(C)C)C2)C3)c2ncnc(N)c12 (single isomer, unassigned) [Example 105, 3-[9-[1-(4-amino-3-methyl-1H-pyrazolo[3,4-d]pyrimidin-1-yl)ethyl]-7-chloro-6-cyano-2-methyl-2,3-dihydro-1,4-benzoxazepin-4(5H)-yl]-N,N-dimethylazetidine-1-sulfonamide] | ≤ 100 nM |
| Cc1nn(C(C)c2cc(Cl)c(C#N)c3c2OC(C)CN(C2CN(S(=O)(=O)N(C)C)C2)C3)c2ncnc(N)c12 (single isomer, unassigned) [Example 106, 3-[9-[1-(4-amino-3-methyl-1H-pyrazolo[3,4-d]pyrimidin-1-yl)ethyl]-7-chloro-6-cyano-2-methyl-2,3-dihydro-1,4-benzoxazepin-4(5H)-yl]-N,N-dimethylazetidine-1-sulfonamide] | ≤ 100 nM |
| CNC(=O)C1CC(N2Cc3c(C#N)c(Cl)cc(C(C)n4nc(C)c5c(N)ncnc54)c3OC(C)C2)C1 (single isomer, unassigned) [Example 113, 3-[9-[1-(4-amino-3-methyl-1H-pyrazolo[3,4-d]pyrimidin-1-yl)ethyl]-7-chloro-6-cyano-2-methyl-2,3-dihydro-1,4-benzoxazepin-4(5H)-yl]-N-methylcyclobutanecarboxamide] | ≤ 100 nM |
| CNC(=O)C1CC(N2Cc3c(C#N)c(Cl)cc(C(C)n4nc(C)c5c(N)ncnc54)c3OC(C)C2)C1 (single isomer, unassigned) [Example 114, 3-[9-[1-(4-amino-3-methyl-1H-pyrazolo[3,4-d]pyrimidin-1-yl)ethyl]-7-chloro-6-cyano-2-methyl-2,3-dihydro-1,4-benzoxazepin-4(5H)-yl]-N-methylcyclobutanecarboxamide] | ≤ 100 nM |
| CNC(=O)C1CC(N2Cc3c(C#N)c(Cl)cc(C(C)n4nc(C)c5c(N)ncnc54)c3OC(C)C2)C1 (single isomer, unassigned) [Example 115, 3-[9-[1-(4-amino-3-methyl-1H-pyrazolo[3,4-d]pyrimidin-1-yl)ethyl]-7-chloro-6-cyano-2-methyl-2,3-dihydro-1,4-benzoxazepin-4(5H)-yl]-N-methylcyclobutanecarboxamide] | ≤ 100 nM |
| CC(=O)N1CC(N2CCOc3c(C(C)n4nc(C)c5c(N)ncnc54)cc(Cl)c(F)c3C2)C1 (stereo not drawn) [Example 34, 1-{1-[4-(1-Acetylazetidin-3-yl)-7-chloro-6-fluoro-2,3,4,5-tetrahydro-1,4-benzoxazepin-9-yl]ethyl}-3-methyl-1H-pyrazolo[3,4-d]pyrimidin-4-amine] | ≤ 100 nM |
| Cc1nn(C(C)c2cc(Cl)c(F)c3c2O[C@@H](C)CN(C2CC(C(=O)O)C2)C3)c2ncnc(N)c12 (stereo partly drawn) [Example 41, 3-[9-[1-(4-Amino-3-methyl-1H-pyrazolo[3,4-d]pyrimidin-1-yl)ethyl]-7-chloro-6-fluoro-2-methyl-2,3-dihydro-1,4-benzoxazepin-4(5H)-yl]cyclobutanecarboxylic acid trifluoroacetate] | ≤ 100 nM |
| Cc1nn(C(C)c2cc(Cl)c(F)c3c2O[C@@H](C)CN(C2CC(C(N)=O)C2)C3)c2ncnc(N)c12 (stereo partly drawn) [Example 43] | ≤ 100 nM |
| CC(=O)N1CC(N2CCOc3c(C(C)n4nc(C)c5c(N)ncnc54)cc(Cl)c(C#N)c3C2)C1 (stereo not drawn) [Example 46, 4-(1-Acetylazetidin-3-yl)-9-[1-(4-amino-3-methyl-1H-pyrazolo[3,4-d]pyrimidin-1-yl)ethyl]-7-chloro-2,3,4,5-tetrahydro-1,4-benzoxazepine-6-carbonitrile] | ≤ 100 nM |

Second part, the molecule after the results:

| IC50 | SMILES |
| --- | --- |
| ≤ 100 nM | Cc1nn(C(C)c2cc(Cl)c(C#N)c3c2OC(C)CN(C2CN(CCO)C2)C3)c2ncnc(N)c12 (single isomer, unassigned) [Example 104, 9-[1-(4-amino-3-methyl-1H-pyrazolo[3,4-d]pyrimidin-1-yl)ethyl]-7-chloro-4-[1-(2-hydroxyethyl)azetidin-3-yl]-2-methyl-2,3,4,5-tetrahydro-1,4-benzoxazepine-6-carbonitrile] |
| ≤ 100 nM | Cc1nn(C(C)c2cc(Cl)c(C#N)c3c2OC(C)CN(CC#N)C3)c2ncnc(N)c12 (single isomer, unassigned) [Example 107, 9-[1-(4-amino-3-methyl-1H-pyrazolo[3,4-d]pyrimidin-1-yl)ethyl]-7-chloro-4-(cyanomethyl)-2-methyl-2,3,4,5-tetrahydro-1,4-benzoxazepine-6-carbonitrile] |
| ≤ 100 nM | Cc1nn(C(C)c2cc(Cl)c(C#N)c3c2OC(C)CN(CC#N)C3)c2ncnc(N)c12 (single isomer, unassigned) [Example 108, 9-[1-(4-amino-3-methyl-1H-pyrazolo[3,4-d]pyrimidin-1-yl)ethyl]-7-chloro-4-(cyanomethyl)-2-methyl-2,3,4,5-tetrahydro-1,4-benzoxazepine-6-carbonitrile] |
| ≤ 100 nM | Cc1nn(C(C)c2cc(Cl)c(C#N)c3c2OC(C)CN(CC(N)=O)C3)c2ncnc(N)c12 (single isomer, unassigned) [Example 109, 2-[9-[1-(4-amino-3-methyl-1H-pyrazolo[3,4-d]pyrimidin-1-yl)ethyl]-7-chloro-6-cyano-2-methyl-2,3-dihydro-1,4-benzoxazepin-4(5H)-yl]acetamide] |
| ≤ 100 nM | Cc1nn(C(C)c2cc(Cl)c(C#N)c3c2OC(C)CN(CC(N)=O)C3)c2ncnc(N)c12 (single isomer, unassigned) [Example 110, 2-[9-[1-(4-amino-3-methyl-1H-pyrazolo[3,4-d]pyrimidin-1-yl)ethyl]-7-chloro-6-cyano-2-methyl-2,3-dihydro-1,4-benzoxazepin-4(5H)-yl]acetamide] |
| ≤ 100 nM | COCCN1Cc2c(C#N)c(Cl)cc(C(C)n3nc(C)c4c(N)ncnc43)c2OC(C)C1 (single isomer, unassigned) [Example 111, 9-[1-(4-amino-3-methyl-1H-pyrazolo[3,4-d]pyrimidin-1-yl)ethyl]-7-chloro-4-(2-methoxyethyl)-2-methyl-2,3,4,5-tetrahydro-1,4-benzoxazepine-6-carbonitrile] |
| ≤ 100 nM | COCCN1Cc2c(C#N)c(Cl)cc(C(C)n3nc(C)c4c(N)ncnc43)c2OC(C)C1 (single isomer, unassigned) [Example 112, 9-[1-(4-amino-3-methyl-1H-pyrazolo[3,4-d]pyrimidin-1-yl)ethyl]-7-chloro-4-(2-methoxyethyl)-2-methyl-2,3,4,5-tetrahydro-1,4-benzoxazepine-6-carbonitrile] |
